# Measurements taken from patent publication US9023843B2, “Antimicrobial compounds and methods of making and using the same” (Melinta Therapeutics, Inc., priority 2009, dated 2015).
# System: Eschericia coli strain ATCC25922
# Assay: standard microdilution assay to determine minimum inhibitory concentrations (MICs)
# Type: cell-based
# Details: Escherichia coli, read-out: E. coli ATCC25922 MIC
# Protocol: Minimum inhibitory concentrations (MICs) are determined by the microdilution method, typically in a final volume of 100 microliters, according to protocols outlined by The Clinical and Laboratory Standards Institute [CLSI; formerly the National Committee for Clinical Laboratory Standards (NCCLS)]. See CLSI: Methods for dilution antimicrobial susceptibility tests for bacteria that grow aerobically; approved standard-fifth edition. Wayne, Pa.: NCCLS; 2000. The assays can be also be performed in microtiter trays according to conventional methodologies as published by the CLSI. See CLSI. Methods for Dilution Antimicrobial Susceptibility Tests for Bacteria That Grow Aerobically; Approved Standard-Seventh Edition. CLSI Document M7-A7 [ISBN 1-56238-587-9] CLSI, 940 West Valley Road, Suite 1400, Wayne Pa. 19087-1898 USA, 2006).
# The compounds of the present invention were tested for antimicrobial activity. The compounds were run against Eschericia coli strain ATCC25922 using a standard microdilution assay to determine minimum inhibitory concentrations (MICs). […] A “N/A” means that data is unavailable. It will be recognized by one skilled in the art that the compounds can be assessed against other bacterial organisms and that the presentation of data for activity against Eschericia coli is illustrative and in no way is intended to limit the scope of the present invention. The compounds of the present invention can be assayed against a range of other microorganisms depending upon the performance activity desired to be gathered. Furthermore, the “+”, “−”, and “N/A” representation and the selection of a cutoff value of 16 micrograms/ml is also illustrative and in no way is intended to limit the scope of the present invention.
row,Structure (SMILES),MIC [µg/mL]
1,NCCCCCN1CC[C@@H](n2cc3c(nc2=O)Nc2ccccc2O3)C1 [Compound 543],> 16
2,CCn1cc2c(nc1=O)Nc1cc(CNCCCN3CCNCC3)ccc1O2 [Compound 919],> 16
3,N=C(N)NCCCN1CCC(n2cc3c(nc2=O)Nc2cc(C(=O)NCCc4nc5ccccc5[nH]4)ccc2O3)CC1 [Compound 641],> 16
4,O=c1nc2c(cn1C1CCC(NCCCN3CCNCC3)CC1)Oc1ccc(C3CCNCC3)cc1N2 (stereo not drawn) [Compound 1193],> 16
5,N=C(N)NCCCN1CCC(n2cc3c(nc2=O)Nc2cc(-c4cccc(C(=O)N5CCOCC5)c4)ccc2O3)CC1 [Compound 651],> 16
6,NCCCn1c(-c2ccc(F)cc2)cn2c(=O)c(C3=CCNCC3)cnc12 [Compound 570],> 16
7,NCCCNCc1ccc(-c2cn3c(=O)cc(Cc4ccccc4OC(F)(F)F)[nH]c3nc2=O)cc1 [Compound 426],> 16
8,N=C(N)NCCCN1CCCC(n2cc3c(nc2=O)Nc2cc(-c4ccc(N5CCOCC5)cc4)ccc2O3)CC1 (stereo not drawn) [Compound 664],> 16
9,NCCCNCc1ccc(-n2cc3c(nc2=O)Nc2cc(-c4ccc(F)cc4)ccc2O3)cc1 [Compound 402],> 16
10,N=C(N)NCCCCCN1CCCC(n2cc3c(nc2=O)Nc2ccccc2O3)CC1 (stereo not drawn) [Compound 576],> 16
11,NCCCNCc1ccc(-c2cn3c(=O)cc(-c4ccccc4F)[nH]c3nc2=O)cc1 [Compound 360],> 16
12,Cn1cnc(S(=O)(=O)N2CCC(c3ccc4c(c3)Nc3nc(=O)n(C5CCN(CCCNC(=N)N)CC5)cc3O4)CC2)c1 [Compound 681],> 16
13,N=C(N)NCCCN1CCC(n2cc3c(nc2=O)Nc2cc(C(=O)NCCCN4CCCC4=O)ccc2O3)CC1 [Compound 674],> 16
14,NC1CCC(n2cc3c(nc2=O)Nc2cc(C4CCNCC4)ccc2O3)CC1 (stereo not drawn) [Compound 972],> 16
15,NCCCNCc1ccc(-n2cc3c(nc2=O)Nc2ccc(-c4ccc(F)cc4)cc2O3)cc1 [Compound 393],> 16
16,NCCCN1CCC(n2cc3c(nc2=O)Nc2cc(C4CCN(C(=O)CN)CC4)ccc2O3)CC1 [Compound 714],> 16
17,NCCCNCc1ccc(-n2cc3c(nc2=O)Nc2ccc(Br)cc2O3)cc1 [Compound 442],> 16

# Next, values leading:
row,MIC [µg/mL],Structure (SMILES)
1,> 16,N=C(N)NCCCNC(=O)[C@H]1CC[C@H](n2cc3c(nc2=O)Nc2c(CCCN)cccc2O3)CC1 [Compound 4008c]
2,> 16,NCCOc1cccc2c1Nc1nc(=O)n([C@H]3CC[C@H](N)CC3)cc1O2 [Compound 4005c]
3,> 16,NCCCN1CCCC(n2cc3c(nc2=O)Nc2cc(C(=O)N4CCC[C@@H](N)C4)ccc2O3)CC1 (stereo partly drawn) [Compound 888]
4,< 16,N=C(N)NCCCNC1CCC(n2cc3c(nc2=O)Nc2cc(C4CCN(C(=O)C5(N)CCCC5)CC4)ccc2O3)CC1 (stereo not drawn) [Compound 783]
5,< 16,N=C(N)NCCCN1CCC(n2cc3c(nc2=O)Nc2cc(C4CCN(C(=O)Nc5ccc(C(F)(F)F)cc5)CC4)ccc2O3)CC1 [Compound 729]
6,< 16,N=C(N)NCCCN(C(=O)CCNC(=N)N)C1CCC(n2cc3c(nc2=O)Nc2cc(C4CCNCC4)ccc2O3)CC1 (stereo not drawn) [Compound 1135]
7,< 16,CN1CCN(CCCNC(=O)c2ccc3c(c2)Nc2nc(=O)n(C4CCC(NCCCNC(=N)N)CC4)cc2O3)CC1 (stereo not drawn) [Compound 774]
8,< 16,N=C(N)NCCCN[C@H]1CC[C@H](n2cc3c(nc2=O)Nc2c(OCCN)cccc2O3)CC1 [Compound 4004c]
9,< 16,N=C(N)NCCCN1CCCC(n2cc3c(nc2=O)Nc2cc(C(=O)NCCc4cnc[nH]4)ccc2O3)CC1 (stereo not drawn) [Compound 707]
10,< 16,N=C(N)NCCCN1CCCC(n2cc3c(nc2=O)Nc2ccccc2O3)CC1 (stereo not drawn) [Compound 603]
11,< 16,NCCNC(=O)C1CCC(n2cc3c(nc2=O)Nc2cc(C4CCNCC4)ccc2O3)CC1 (stereo not drawn) [Compound 1238]
12,< 16,N=C(N)NCCCN1CCCC(n2cc3c(nc2=O)Nc2cc(C4CCN(C(N)=O)CC4)ccc2O3)CC1 (stereo not drawn) [Compound 833]
13,< 16,NCCCN(CCCN)CC1CCC(n2cc3c(nc2=O)Nc2cc(C4CCNCC4)ccc2O3)CC1 (stereo not drawn) [Compound 1370]
